Test results as given in US7792665B2, “Method for designing a compound based on the three dimensional structure of phosphoinositide dependent protein kinase 1 (PDK1)” (Medical Research Council, priority 2002, dated 2010).
Where a SMILES comes first, the peptide text is derived from it. [ ]: non-standard residue; d: D form. pT = C[C@@H](OP(=O)(O)O)[C@H](N)C(=O)O

Key:
[1] = target: T1, mutant of PDK1 in which both Lys76 and Arg131 were changed to Ala (Homo sapiens, UniProt O15530, K76A/R131A); experiment: PDK1 catalytic activity towards T308tide, activation by peptides, Lys76 and Arg131 to Ala double mutant; type: biochemical; details: peptide 0.3 and 1 mM, compared with PDK1[R131A]
T1 construct: GST (N); made in house; host or cells: human embryonic kidney 293 cells (pEBG2T vector)
Procedure: C. Activation of the indicated forms of PDK1 by 56K-pHM and S6K-HM. PDK1 activity was measured using the peptide substrate (T308tide) in the presence of the indicated concentrations of 56K-pHM (closed circles) and S6K-HM (open circles) as described in the methods. Assays were performed in triplicate and similar results obtained in 2 separate experiments. The results are the average—SD for a single experiment.
The ability of wild type and mutant PDK1 to phosphorylate the synthetic peptide T308tide ([…] ([Biondi et al., 2000]) (SEQ ID NO:108) was carried out in 30 μl assays containing 100 ng of wild type or mutant PDK1, 50 mM Tris/HCl pH 7.5, 0.1% 13-mercaptoethanol, 10 mM MgCl2, 100 μM [32γ P]ATP (200 cpm/pmol), 0.5 μM microcystin-LR, 1 mM T308tide in the presence or absence of the indicated concentrations of the 56K-pHM peptide ([…](P)YVAPSV) (SEQ ID NO:104) or 56K-HM. peptide ([…]) (SEQ ID NO:105). After incubation for 10 min at 30° C., 25 μl of the resultant mixture was spotted into P81 phosphocellulose paper (2×2 cm) and the papers washed and analysed as described previously for assays of MAP kinase. Control assays were carried out in parallel in which either PDK1, or peptide substrate were omitted; these values were always less than 5% of the activity measured in the presence of these reagents. […]

wild type PDK1 = target: T2, wild type PDK1 (Homo sapiens, UniProt O15530); experiment: Surface plasmon resonance (BiaCore) binding of hydrophobic motif peptides, wild type PDK1; parameters: made in house; host or cells: human embryonic kidney 293 cells (pEBG2T vector); details: BiaCore
T2 sequence (O15530 1-556): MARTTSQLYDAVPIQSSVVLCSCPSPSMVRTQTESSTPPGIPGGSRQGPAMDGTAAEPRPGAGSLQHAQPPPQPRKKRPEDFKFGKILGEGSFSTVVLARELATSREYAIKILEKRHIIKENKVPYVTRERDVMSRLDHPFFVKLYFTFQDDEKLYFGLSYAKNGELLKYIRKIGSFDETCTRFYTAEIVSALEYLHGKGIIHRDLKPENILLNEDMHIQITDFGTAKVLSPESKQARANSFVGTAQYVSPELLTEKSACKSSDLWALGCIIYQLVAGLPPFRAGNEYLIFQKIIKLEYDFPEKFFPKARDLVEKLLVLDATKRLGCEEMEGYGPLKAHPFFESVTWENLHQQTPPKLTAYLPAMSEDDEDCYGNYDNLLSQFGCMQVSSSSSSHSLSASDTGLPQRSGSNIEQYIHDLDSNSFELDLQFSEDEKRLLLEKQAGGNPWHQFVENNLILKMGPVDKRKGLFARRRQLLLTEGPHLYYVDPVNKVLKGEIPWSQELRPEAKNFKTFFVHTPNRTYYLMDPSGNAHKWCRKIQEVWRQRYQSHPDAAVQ
Procedure: Binding and activation of wild type and mutant forms of PDK1 to a phosphopeptide derived from the hydrophobic motif of S6K1. The binding of the wild type (wt) PDK1 and indicated mutants to a phosphopeptide comprising the hydrophobic motif of S6K1 (S6K-pHM: […]*YVAPSV, where T* indicates phospho-threonine, SEQ ID NO:104) was analysed by surface plasmon resonance as described in the Materials and Methods.
A. The sensor chip SA was coated with 12RUs of the biotinylated S6K-pHM peptide and the binding was analysed following injection of 270 nM wild type PDK1, PDK1 [T148A] and PDK1 [K76A]. […] (data not shown).
B. As in A. except that binding was analysed over a range of PDK1 concentrations (2-2150 nM). The response level at the steady state binding is plotted versus the log of the PDK1 concentration. The estimated Kd was obtained by fitting the data to a sigmoid curve using Kaleidagraph software.
Binding was analysed in a BiaCore 3000 system (BiaCore AB, Stevenage, UK). Biotinylated S6K-pHM (Biotin-C12-[…](P)YVAPSV) (SEQ ID NO:104) or the non-phosphorylated form of this peptide S6K-HM was bound to an streptavidin-coated Sensor chip (SA) (12 response units, RU). 30 μl of wild type or the indicated mutant GST-PDK1 were injected at a flow rate of 30 μl/min, in buffer HBS-P (10 mM HEPES pH 7.4, 0.15M NaCl, 0.005% (by vol) polysorbate-20) supplemented with 1 mM DTT. Specific interactions between 56K-pHM and PDK1 proteins were obtained between the concentration range of 2-2150 nM PDK1. Steady state binding was determined at each concentration. Dissociation of PDK1 from the phospho-peptide was monitored over a 1 min period. Regeneration of the sensor chip surface was performed with 1{tilde over (0)} μl injections of 0.05% SDS. […] (RUmax=435). For all PDK1 construct tested, the off rates for S6Kp-HM were high in comparison to those of PIFtide binding with the time taken for 50% dissociation to occur for 56K-pHM is 30s compared to 1000s for PIFtide.

T1 sequence (O15530 whole entry K76A/R131A): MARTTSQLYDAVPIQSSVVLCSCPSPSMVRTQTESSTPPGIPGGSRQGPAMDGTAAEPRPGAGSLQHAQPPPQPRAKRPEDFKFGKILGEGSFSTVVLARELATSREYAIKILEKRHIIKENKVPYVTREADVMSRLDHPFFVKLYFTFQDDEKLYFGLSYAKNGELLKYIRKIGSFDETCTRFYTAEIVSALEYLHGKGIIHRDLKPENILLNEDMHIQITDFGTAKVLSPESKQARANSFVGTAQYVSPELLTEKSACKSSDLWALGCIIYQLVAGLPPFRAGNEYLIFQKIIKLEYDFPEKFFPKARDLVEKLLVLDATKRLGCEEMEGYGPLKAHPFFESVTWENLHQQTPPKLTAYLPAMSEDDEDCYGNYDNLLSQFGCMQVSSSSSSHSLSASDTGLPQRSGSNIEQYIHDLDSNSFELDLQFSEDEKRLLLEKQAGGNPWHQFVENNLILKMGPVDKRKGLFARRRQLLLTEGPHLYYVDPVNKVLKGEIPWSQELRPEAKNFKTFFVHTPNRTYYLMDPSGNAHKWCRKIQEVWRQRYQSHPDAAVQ

How did the “activation of Lys76/Arg131 to Ala double mutant” value [1] turn out when CC(C)C[C@H](NC(=O)[C@H](Cc1ccccc1)NC(=O)[C@@H](NC(=O)[C@H](CCC(N)=O)NC(=O)[C@H](CC(N)=O)NC(=O)[C@H](C)NC(=O)[C@H](CO)NC(=O)[C@H](CCC(=O)O)NC(=O)[C@@H](N)CO)C(C)C)C(=O)NCC(=O)N[C@@H](Cc1ccccc1)C(=O)N[C@H](C(=O)N[C@@H](Cc1ccc(O)cc1)C(=O)N[C@H](C(=O)N[C@@H](C)C(=O)N1CCC[C@H]1C(=O)N[C@@H](CO)C(=O)N[C@H](C(=O)O)C(C)C)C(C)C)[C@@H](C)OP(=O)(O)O [S6K-pHM] (H-SESANQVFLGF[pT]YVAPSV-OH; N-terminus and C-terminus assumed) was run?
The value was “activated even less significantly”.

And the “time taken for 50% dissociation of PDK1 from peptide” value (wild type PDK1; all PDK1 constructs tested)?
The value was 30 s.

What about the “lower affinity of wild type PDK1 for peptide in comparison to PIFtide” value (wild type PDK1; overall) of the same molecule?
The value was “approximately 100 fold”.
